The source of these data is patent publication US20220378923A1, “BET DEGRADER” (KYOWA KIRIN CO., LTD., priority 2019, published 2022).

The assay has as its system MYC mRNA expression in SU-DHL-4 cells. Description: Suppressive effect on MYC mRNA expression (Test Example 2). Format: cell-based, human. To be noted: test compound 100 nmol/L, 6 hours, qRT-PCR corrected by ACTB, GAPDH; for inhibition at 0.1 µM: Homo sapiens, HPRT1, read-out: Suppression Rate of MYC mRNA Expression (%); for Suppression Rate of MYC mRNA Expression (%): HPRT1. As for the experimental part:
The cells were passaged twice a week at a volume of 20-40 mL so as to maintain a cell concentration of 1×10^6 cells/mL or less. The cultured SU-DHL-4 cells were seeded at 6×10^5 cells/well in a transparent 6-well plate (Code No. 140675, Thermo Fisher Scientific). After seeding, the cells were precultured at 37° C. in a carbon dioxide gas incubator for 18 to 25 hours. […] At this time, the final concentration of DMSO was adjusted to be 0.1 vol %. After adding the test compound, the cells were cultured at 37° C. in a carbon dioxide gas incubator for 6 hours. Then, the cells were collected by centrifugation and used for extraction of mRNA. mRNA extraction from cells was performed using Maxwell® 16 LEV simplyRNA Purification Kits (Code No. AS1270, Promega). The mRNA recovery protocol was performed according to the manufacturer's recommended protocol attached to the kit. […] The cDNA conversion was performed, according to the manufacturer's recommended protocol attached to the kit, in 0.020 mL of the reaction solution, and GeneAmp® PCR System 9700 (Applied Biosystems) was used. The cDNA-converted sample was diluted 10-fold by adding 0.180 mL of RNase Free Water (Code No. 10977-023, Thermo Fisher Scientific) and used for quantitative real-time polymerase chain reaction (qRT-PCR). For the calibration curve of qRT-PCR, 0.08 mL of RNase Free Water was added to a cDNA sample using DMSO as a test compound for 5-fold dilution. Further, two 5-fold dilutions were prepared stepwise, and these three samples were used as the calibration curve samples. The following reagents were used for qRT-PCR: TaqMan Gene Expression Assays, Inventoried (Primer probe: Code No. 4331182, Thermo Fisher Scientific, Assay ID: (i) MYC: Hs00153408_m1, (ii) ACTB: Hs01060665_g1, (iii) GAPDH: Hs04420697_g1, (iv) HPRT1: […] Universal PCR Master Mix, no AmpEraseR UNG (Master Mix: Code No. 4367846, Thermo Fisher Scientific). Primer probe (0.001 mL), Master Mix (0.010 mL), water (0.004 mL) and the diluted cDNA sample (0.005 mL) were mixed, and qRT-PCR analysis was performed. For qRT-PCR analysis, QuantStudio 7 Flex (Thermo Fisher Scientific) or 7500 Fast Real-Time PCR (Applied Biosystems) was used to measure in Fast mode and analyze. […] Corrected MYC expression=A/B • A: MYC expression level • B: Geometric mean of expression levels of ACTB, GAPDH and HPRT1 Using the corrected values, the suppression rate of MYC expression for the wells to which the test compound was not added was calculated by the following formula. […] Corrected MYC expression level in a well containing test compound • D: Corrected MYC expression level in a well to which test compound was not added
In general terms: Quantitative PCR measures a nucleic acid by following its amplification.

As to `CCC(=O)N1c2ccccc2[C@H](Nc2ccc(C(=O)N3CC4CC3CN4C(=O)c3ccc(N[C@@H]4C[C@H](C)N(C(=O)CC)c5ccccc54)cc3)cc2)C[C@@H]1C` [Compound 1k, 1,1′-{(2S,2'S,4R,4′R)-{[(2,5-Diazabicyclo[2.2.1]heptane-2,5-dicarbonyl)bis(4,1-phenylene)]bis(azanediyl)}bis[2-methyl-3,4-dihydroquinoline-4,1(2H)-diyl]}bis(propan-1-one)], the inhibition at 0.1 µM worked out at 98.6%.

For `CCC(=O)N1c2ccccc2[C@H](Nc2ccc(-c3nnc(CNC(=O)C4CCN(Cc5cc(O)cc(-c6c(C)noc6C)c5)CC4)o3)cc2)C[C@@H]1C` [Compound 12a, 1-(3-(3,5-Dimethylisoxazol-4-yl)-5-hydroxybenzyl)-N-((5-(4-(((2S,4R)-2-methyl-1-propionyl-1,2,3,4-tetrahydroquinolin-4-yl)amino)phenyl)-1,3,4-oxadiazol-2-yl)methyl)piperidine-4-carboxamide], the inhibition at 0.1 µM was 98.5%.

With `CCC(=O)N1c2ccccc2[C@H](Nc2ccc(CNCc3cn(-c4ccc(N[C@@H]5C[C@H](C)N(C(=O)CC)c6ccccc65)cc4)nn3)cc2)C[C@@H]1C` [Compound 5h, 1-((2S,4R)-2-Methyl-4-((4-((((1-(4-(((2S,4R)-2-methyl-1-propionyl-1,2,3,4-tetrahydroquinolin-4-yl)amino)phenyl)-1H-1,2,3-triazol-4-yl)methyl)amino)methyl)phenyl)amino)-3,4-dihydroquinolin-1(2H)-yl)propan-1-one], the inhibition at 0.1 µM turned out to be 97.3%.

Take `CCC(=O)N1c2ccccc2[C@H](Nc2ccc(C(=O)NC3CCN(C(=O)c4ccc(N[C@@H]5C[C@H](C)N(C(=O)CC)c6ccccc65)cc4)CC3)cc2)C[C@@H]1C` (relative stereo) [Compound 1c, 4-{[(2S*,4R*)-2-Methyl-1-propionyl-1,2,3,4-tetrahydroquinolin-4-yl]amino}-N-[1-(4-{[(2S*,4R*)-2-methyl-1-propionyl-1,2,3,4-tetrahydroquinolin-4-yl]amino}benzoyl)piperidin-4-yl]benzamide]: the inhibition at 0.1 µM worked out at 97.3%.

As to `Cc1sc2c(c1C)C(c1ccc(Cl)cc1)=N[C@@H](CC(=O)NCCOCCOCCOCCOCCOCCOCCOCCNC(=O)C[C@@H]1N=C(c3ccc(Cl)cc3)c3c(sc(C)c3C)-n3c(C)nnc31)c1nnc(C)n1-2` [compound 2, reference compound], the “Suppression Rate of MYC mRNA Expression (%)” value (shortened to “Suppression Rate … (%)”) turned out to be 57.7%.

Turning to `CCC(=O)N1c2ccccc2[C@H](NCc2ccc(C(=O)N3CC(C(=O)Nc4ccc(N[C@@H]5C[C@H](C)N(C(=O)CC)c6ccccc65)cc4)C3)cc2)C[C@@H]1C` (relative stereo) [Compound 10g, 1-(4-((((2S*,4R*)-2-Methyl-1-propionyl-1,2,3,4-tetrahydroquinolin-4-yl)amino)methyl)benzoyl)-N-(4-(((2S,4R)-2-methyl-1-propionyl-1,2,3,4-tetrahydroquinolin-4-yl)amino)phenyl)azetidine-3-carboxamide], the inhibition at 0.1 µM amounted to 97.2%.

`CCC(=O)N1c2ccccc2[C@H](Nc2ccc(NC(=O)C#CCNC(=O)C3CCC(N[C@@H]4C[C@H](C)N(C(=O)CC)c5ccccc54)CC3)cc2)C[C@@H]1C` (relative stereo) [Compound 8g, (1R,4r)-4-(((2S*,4R*)-2-Methyl-1-propionyl-1,2,3,4-tetrahydroquinolin-4-yl)amino)-N-(4-((4-(((2S,4R)-2-methyl-1-propionyl-1,2,3,4-tetrahydroquinolin-4-yl)amino)phenyl)amino)-4-oxobut-2-yn-1-yl)cyclohexane-1-carboxamide]: the “Suppression Rate … (%)” value was 96.6%.

With `CCC(=O)N1c2ccccc2[C@H](Nc2ccc(NC(=O)N3CCN(C(=O)c4ccc(N[C@@H]5C[C@H](C)N(C(=O)CC)c6ccccc65)cc4)CC3)cc2)C[C@@H]1C` (relative stereo) [Compound 6m, 4-(4-(((2S,4R)-2-Methyl-1-propionyl-1,2,3,4-tetrahydroquinolin-4-yl)amino)benzoyl)-N-(4-(((2S*,4R*)-2-methyl-1-propionyl-1,2,3,4-tetrahydroquinolin-4-yl)amino)phenyl)piperazine-1-carboxamide], the inhibition at 0.1 µM is 97%.

As for `CCC(=O)N1c2ccccc2[C@H](Nc2ccc(C(=O)NCCNS(=O)(=O)c3ccc(N[C@@H]4C[C@H](C)N(C(=O)CC)c5ccccc54)cc3)cc2)C[C@@H]1C` [Compound 4d, 4-{[(2S,4R)-2-Methyl-1-propionyl-1,2,3,4-tetrahydroquinolin-4-yl]amino}-N-{2-[(4-{[(2S,4R)-2-methyl-1-propionyl-1,2,3,4-tetrahydroquinolin-4-yl]amino}phenyl)sulfonamide]ethyl}benzamide], the “Suppression Rate … (%)” value is listed as 98.3%.

In the case of `CCC(=O)N1c2ccccc2[C@H](Nc2ccc(-c3nnc(CNC(=O)[C@H]4CC[C@H](N[C@@H]5C[C@H](C)N(C(=O)CC)c6ccccc65)CC4)o3)cc2)C[C@@H]1C` [Compound 7q, (1R,4R)-4-(((2S,4R)-2-Methyl-1-propionyl-1,2,3,4-tetrahydroquinolin-4-yl)amino)-N-((5-(4-(((2S,4R)-2-methyl-1-propionyl-1,2,3,4-tetrahydroquinolin-4-yl)amino)phenyl)-1,3,4-oxadiazol-2-yl)methyl)cyclohexane-1-carboxamide], the “Suppression Rate … (%)” value amounted to 97.4%.

For the compound `CCC(=O)N1c2ccccc2[C@H](NCCCCCCCC(=O)Nc2ccc(N[C@@H]3C[C@H](C)N(C(=O)CC)c4ccccc43)cc2)C[C@@H]1C` (relative stereo) [Compound 12h, 8-(((2S*,4R*)-2-Methyl-1-propionyl-1,2,3,4-tetrahydroquinolin-4-yl)amino)-N-(4-(((2S,4R)-2-methyl-1-propionyl-1,2,3,4-tetrahydroquinolin-4-yl)amino)phenyl)octanamide], the inhibition at 0.1 µM stood at 96.5%.

`CCC(=O)N1c2ccccc2[C@H](Nc2ccc(SCCNC(=O)c3ccc(C4=N[C@@H](CC(=O)OCCN(C)C)c5nnc(C)n5-c5sc(C)c(C)c54)cc3)cc2)C[C@@H]1C` [Compound 13a, 2-(Dimethylamino)ethyl 2-((S)-2,3,9-trimethyl-4-(4-((2-((4-(((2S,4R)-2-methyl-1-propionyl-1,2,3,4-tetrahydroquinolin-4-yl)amino)phenyl)thio)ethyl)carbamoyl)phenyl)-6H-thieno[3,2-f][1,2,4]triazolo[4,3-a][1,4]diazepin-6-yl)acetate]: the inhibition at 0.1 µM was 97.6%.

On to `CCC(=O)N1c2ccccc2[C@H](Nc2ccc(C(=O)NCCCNC(=O)c3ccc(C4=N[C@@H](CC(=O)OC5CCC(O)CC5)c5nnc(C)n5-c5sc(C)c(C)c54)cc3)cc2)C[C@@H]1C` (stereo partly drawn) [Compound 13d, 4-Hydroxycyclohexyl 2-((S)-2,3,9-trimethyl-4-(4-((3-(4-(((2S,4R)-2-methyl-1-propionyl-1,2,3,4-tetrahydroquinolin-4-yl)amino)benzamide)propyl)carbamoyl)phenyl)-6H-thieno[3,2-f][1,2,4]triazolo[4,3-a][1,4]diazepin-6-yl)acetate], for which the “Suppression Rate … (%)” value was determined as 97.2%.

On to `CCC(=O)N1c2ccccc2[C@H](Nc2ccc(NC(=O)CCCC(=O)Nc3ccc(C(=O)N4CCC(=O)Nc5ccccc54)cc3)cc2)C[C@@H]1C` [Compound 16o, N^1-(4-(((2S,4R)-2-Methyl-1-propionyl-1,2,3,4-tetrahydroquinolin-4-yl)amino)phenyl)-N5-(4-(4-oxo-2,3,4,5-tetra hydro-1H-benzo[b][1,4]diazepine-1-carbonyl)phenyl)glutaramide], for which the inhibition at 0.1 µM turned out to be 79.1%.

In the case of `CCC(=O)N1c2ccccc2[C@H](Nc2ccc(NC(=O)C3CN(C(=O)c4ccc(N[C@@H]5C[C@H](C)N(C(=O)CC)c6ccccc65)cc4)C3)cc2)C[C@@H]1C` (relative stereo) [Compound 2h, 1-(4-{[(2S,4R)-2-Methyl-1-propionyl-1,2,3,4-tetrahydroquinolin-4-yl]amino}benzoyl)-N-(4-{[(2S*,4R*)-2-methyl-1-propionyl-1,2,3,4-tetrahydroquinolin-4-yl]amino}phenyl)azetidine-3-carboxamide], the inhibition at 0.1 µM was determined as 98.2%.
